Results published in paper PMC6390583 (BMC rheumatology, 2018).
Where two headings read alike, the source gives them in different places.

Key:
[1] = test system: IL-6 induced STAT3 phosphorylation; assay: IL-6 induced STAT3 phosphorylation in TF-1 cells; type: cell-based; conditions: Homo sapiens, JAK 1, read-out: Human IC50, IL-6 pSTAT3
Method: (§1) IL-6 and Oncostatin M (OSM) induced STAT3 phosphorylation was assessed in the human erythroleukemia TF-1 cell line. Erythropoietin-induced STAT5 phosphorylation was assessed in the human UT-7 cell line. IL-2 and IL-15 induced STAT5 phosphorylation was assessed in activated human T-cells. Detection of phosphorylated STATs was accomplished with the SureFire pSTAT5 or pSTAT3 Assay kit (Perkin Elmer, Hopkinton, MA) per standard manufacturer’s protocol, with the exception of an overnight incubation following addition of donor beads before detection on the EnVision (Perkin Elmer, Hopkinton, MA). IFNγ induced STAT1 phosphorylation was assessed in the CD14+ monocyte population in human PBMC by flow cytometry. CD14 BV421 was purchased from BD Biosciences (San Jose, CA). STAT1 PE ([…]) was purchased from ThermoFisher Scientific (Waltham, MA). IL-4 and IL-13 induced STAT6 phosphorylation and IL-31 induced STAT3 phosphorylation were assessed in adult human epithelial keratinocytes (HEKa, ThermoFisher Scientific, Waltham, MA) by flow cytometry. STAT6 PE (pY641) and STAT3 PE (Y705) were purchased from BD Biosciences (San Jose, CA).

[2] = test system: IL-6 induced pSTAT3, CD14+ whole blood; assay: IL-6 signaling in human whole blood, CD14+ monocytic population; type: cell-based; conditions: JAK 1
[3] = test system: IL-6 induced pSTAT3, CD3+ whole blood; assay: IL-6 signaling in human whole blood, CD3+ T-cell population; type: cell-based; conditions: JAK 1
[4] = test system: Oncostatin M (OSM) induced STAT3 phosphorylation; assay: Oncostatin M induced STAT3 phosphorylation in TF-1 cells; type: cell-based; conditions: Homo sapiens, JAK 1, N = 2, read-out: Human IC50, OSM pSTAT3
Method: as §1

[5] = test system: Erythropoietin-induced STAT5 phosphorylation; assay: Erythropoietin-induced STAT5 phosphorylation in UT-7 cells; type: cell-based; conditions: Homo sapiens; UT7 cells, JAK 2; read-out: Human IC50, Epo pSTAT5
Method: as §1

[6] = test system: IL-2 induced STAT5 phosphorylation; assay: IL-2 induced STAT5 phosphorylation in activated T-cells; type: cell-based; conditions: T-blasts, JAK 1/3, read-out: Human IC50, IL-2 pSTAT5
Method: as §1

[7] = test system: IL-15 induced STAT5 phosphorylation; assay: IL-15 induced STAT5 phosphorylation in activated T-cells; type: cell-based; conditions: Homo sapiens, T-cell; T-blasts, JAK 1/3; read-out: Human IC50, IL-15 pSTAT5
Method: as §1

[8] = test system: IFNγ induced STAT1 phosphorylation; assay: IFNγ induced STAT1 phosphorylation in CD14+ monocytes of PBMC; type: cell-based; conditions: Homo sapiens, Monocyte, JAK 1/2, read-out: Human IC50, IFNγ pSTAT1
Method: as §1

[9] = test system: IL-4 induced STAT6 phosphorylation; assay: IL-4 induced STAT6 phosphorylation in HEKa; type: cell-based; conditions: Homo sapiens, JAK 1/3, read-out: Human IC50, IL-4 pSTAT6
Method: as §1

[10] = test system: IL-13 induced STAT6 phosphorylation; assay: IL-13 induced STAT6 phosphorylation in HEKa; type: cell-based; conditions: Homo sapiens, JAK 1/TYK2, read-out: Human IC50, IL-13 pSTAT6
Method: as §1

[11] = test system: IL-31 induced STAT3 phosphorylation; assay: IL-31 induced STAT3 phosphorylation in HEKa; type: cell-based; conditions: Homo sapiens, JAK 1/2, read-out: Human IC50, IL-31 pSTAT3
Method: as §1

[12] = test system: adjuvant induced arthritis; assay: Rat adjuvant-induced arthritis (AIA) model; type: in vivo
reticulocyte deployment = assay: Epo induced reticulocyte deployment assay; type: in vivo; conditions: rat, Epo challenge, highest concentration tested
Method: Naïve male Lewis rats were injected intravenously with either PBS or 1000 IU of epoetin α (Procrit®, Janssen Products, LP, Horsham, PA) for two consecutive days. Reticulocytes were measured on day 4 by flow cytometry using thiozole orange as a dye as previously described.

[13] = test system: CD3-/CD16+/CD56+ NK cells; assay: Circulating NK cell analysis after 14 days dosing; type: in vivo, rat
Method: Blood was collected and stained using BD MultiTest IMK kit (BD Biosciences, San Jose, CA) per manufacturer’s instructions. NK cell numbers were determined by using FlowJo analysis software (FlowJo, LLC, Ashland, OR) and by examining the CD3^−/CD16^+/CD56^+ population. The number of cells/μL was calculated by using the following equation: (# events in cell population/# of events in absolute bead count region) × (# beads per test/test volume), with the value beads per test indicated on the BD Trucount tube label.

IL-6 induced pSTAT3 = assay: Clinical ex vivo IL-6 stimulation of whole blood, pSTAT3; type: in vivo, healthy volunteers
Method: (§2) Recombinant human IL-6 (400 ng/ml), or IL-7 (400 ng/ml), (R&D Systems, Minneapolis, MN) was added to blood and incubated for 10 min at 37°C. Surface antibodies were added (CD14-APC, CD3-fluorescein isothiocyanate [FITC]; BD Biosciences, San Jose, CA) and incubated on ice for an additional 20 min. Samples were lysed (Lyse/Fix, BD Biosciences, San Jose, CA) and incubated for 10 min at 37°C. Samples were washed and stored at − 70°C. For intracellular staining, samples were thawed, washed, and resuspended in BD Perm buffer III (BD Biosciences, San Jose, CA) on ice for 30 min. Samples were washed and stained with pSTAT5-PE or pSTAT3-PE (BD Biosciences, San Jose, CA) for 60 min at room temperature and then analyzed immediately on a FACSCalibur. Geometric means were determined using FlowJo analysis software.

IL-7 driven pSTAT5 = assay: Clinical ex vivo IL-7 stimulation of whole blood, pSTAT5; type: in vivo; conditions: healthy volunteers, 12 mg of upadacitinib, 1 h post dose
Method: as §2

ALK = ALK (Homo sapiens, UniProt Q9UM73); assay: trFRET binding kinome profiling
ALK, sequence (Q9UM73 19-1620, species assumed): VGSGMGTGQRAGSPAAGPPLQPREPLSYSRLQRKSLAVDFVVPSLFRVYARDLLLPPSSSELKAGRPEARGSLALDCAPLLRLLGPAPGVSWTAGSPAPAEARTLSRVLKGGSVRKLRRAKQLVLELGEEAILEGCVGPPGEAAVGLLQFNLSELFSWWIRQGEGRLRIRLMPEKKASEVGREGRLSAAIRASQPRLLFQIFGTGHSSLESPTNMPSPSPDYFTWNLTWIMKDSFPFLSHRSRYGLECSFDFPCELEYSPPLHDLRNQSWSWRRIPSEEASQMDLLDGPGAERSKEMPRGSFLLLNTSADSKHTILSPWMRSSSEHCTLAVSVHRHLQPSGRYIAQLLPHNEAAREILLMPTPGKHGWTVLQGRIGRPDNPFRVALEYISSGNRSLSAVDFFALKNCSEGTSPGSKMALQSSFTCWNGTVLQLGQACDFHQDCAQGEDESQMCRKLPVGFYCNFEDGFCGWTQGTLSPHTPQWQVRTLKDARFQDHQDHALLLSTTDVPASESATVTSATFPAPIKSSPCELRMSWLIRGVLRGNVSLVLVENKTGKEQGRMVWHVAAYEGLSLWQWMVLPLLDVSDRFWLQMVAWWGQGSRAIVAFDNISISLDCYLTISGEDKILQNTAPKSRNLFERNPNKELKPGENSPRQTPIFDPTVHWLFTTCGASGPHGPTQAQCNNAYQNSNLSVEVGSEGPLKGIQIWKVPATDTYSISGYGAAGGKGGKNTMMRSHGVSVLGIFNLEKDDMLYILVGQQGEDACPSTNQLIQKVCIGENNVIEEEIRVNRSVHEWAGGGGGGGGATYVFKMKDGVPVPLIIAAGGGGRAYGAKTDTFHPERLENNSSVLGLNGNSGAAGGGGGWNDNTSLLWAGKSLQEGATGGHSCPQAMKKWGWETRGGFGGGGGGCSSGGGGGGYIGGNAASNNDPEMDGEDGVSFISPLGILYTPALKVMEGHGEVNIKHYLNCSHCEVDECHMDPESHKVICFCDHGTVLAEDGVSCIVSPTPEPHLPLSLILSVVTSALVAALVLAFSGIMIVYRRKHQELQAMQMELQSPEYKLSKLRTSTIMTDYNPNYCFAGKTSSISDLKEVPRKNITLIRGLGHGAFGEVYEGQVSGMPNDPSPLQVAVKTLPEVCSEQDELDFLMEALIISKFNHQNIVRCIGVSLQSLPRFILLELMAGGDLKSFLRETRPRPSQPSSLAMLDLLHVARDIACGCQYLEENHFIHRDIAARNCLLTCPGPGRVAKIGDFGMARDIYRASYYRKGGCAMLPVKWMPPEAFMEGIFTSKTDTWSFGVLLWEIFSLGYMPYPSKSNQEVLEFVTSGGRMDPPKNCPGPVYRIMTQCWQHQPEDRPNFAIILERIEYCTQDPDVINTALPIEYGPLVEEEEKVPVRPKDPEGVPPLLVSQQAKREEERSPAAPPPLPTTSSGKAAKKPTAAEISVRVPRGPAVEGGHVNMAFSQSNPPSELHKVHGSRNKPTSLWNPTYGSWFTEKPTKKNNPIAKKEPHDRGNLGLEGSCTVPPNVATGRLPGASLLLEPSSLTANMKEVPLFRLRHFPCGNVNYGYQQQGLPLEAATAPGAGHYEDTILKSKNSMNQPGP
Method: (§3) JAK activity assays using isolated kinase domains in the presence of 0.1 mM ATP and trFRET kinome profiling were conducted as described previously (17).

Aurora 1 = Aurora 1 (Homo sapiens, UniProt Q96GD4); assay: trFRET binding kinome profiling
Aurora 1, sequence (Q96GD4 whole entry, species assumed): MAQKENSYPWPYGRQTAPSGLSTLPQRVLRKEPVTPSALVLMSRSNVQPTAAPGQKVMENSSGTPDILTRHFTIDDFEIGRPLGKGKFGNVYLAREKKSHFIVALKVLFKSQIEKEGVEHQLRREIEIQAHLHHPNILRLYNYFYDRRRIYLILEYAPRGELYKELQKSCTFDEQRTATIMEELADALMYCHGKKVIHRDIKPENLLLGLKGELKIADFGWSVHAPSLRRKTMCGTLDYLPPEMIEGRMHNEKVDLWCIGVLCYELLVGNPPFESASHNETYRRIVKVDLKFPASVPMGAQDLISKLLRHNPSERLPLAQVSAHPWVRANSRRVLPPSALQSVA
Method: as §3

Rock2 = Rock2 (Homo sapiens, UniProt O75116); assay: trFRET binding kinome profiling
Rock2, sequence (O75116 whole entry, species assumed): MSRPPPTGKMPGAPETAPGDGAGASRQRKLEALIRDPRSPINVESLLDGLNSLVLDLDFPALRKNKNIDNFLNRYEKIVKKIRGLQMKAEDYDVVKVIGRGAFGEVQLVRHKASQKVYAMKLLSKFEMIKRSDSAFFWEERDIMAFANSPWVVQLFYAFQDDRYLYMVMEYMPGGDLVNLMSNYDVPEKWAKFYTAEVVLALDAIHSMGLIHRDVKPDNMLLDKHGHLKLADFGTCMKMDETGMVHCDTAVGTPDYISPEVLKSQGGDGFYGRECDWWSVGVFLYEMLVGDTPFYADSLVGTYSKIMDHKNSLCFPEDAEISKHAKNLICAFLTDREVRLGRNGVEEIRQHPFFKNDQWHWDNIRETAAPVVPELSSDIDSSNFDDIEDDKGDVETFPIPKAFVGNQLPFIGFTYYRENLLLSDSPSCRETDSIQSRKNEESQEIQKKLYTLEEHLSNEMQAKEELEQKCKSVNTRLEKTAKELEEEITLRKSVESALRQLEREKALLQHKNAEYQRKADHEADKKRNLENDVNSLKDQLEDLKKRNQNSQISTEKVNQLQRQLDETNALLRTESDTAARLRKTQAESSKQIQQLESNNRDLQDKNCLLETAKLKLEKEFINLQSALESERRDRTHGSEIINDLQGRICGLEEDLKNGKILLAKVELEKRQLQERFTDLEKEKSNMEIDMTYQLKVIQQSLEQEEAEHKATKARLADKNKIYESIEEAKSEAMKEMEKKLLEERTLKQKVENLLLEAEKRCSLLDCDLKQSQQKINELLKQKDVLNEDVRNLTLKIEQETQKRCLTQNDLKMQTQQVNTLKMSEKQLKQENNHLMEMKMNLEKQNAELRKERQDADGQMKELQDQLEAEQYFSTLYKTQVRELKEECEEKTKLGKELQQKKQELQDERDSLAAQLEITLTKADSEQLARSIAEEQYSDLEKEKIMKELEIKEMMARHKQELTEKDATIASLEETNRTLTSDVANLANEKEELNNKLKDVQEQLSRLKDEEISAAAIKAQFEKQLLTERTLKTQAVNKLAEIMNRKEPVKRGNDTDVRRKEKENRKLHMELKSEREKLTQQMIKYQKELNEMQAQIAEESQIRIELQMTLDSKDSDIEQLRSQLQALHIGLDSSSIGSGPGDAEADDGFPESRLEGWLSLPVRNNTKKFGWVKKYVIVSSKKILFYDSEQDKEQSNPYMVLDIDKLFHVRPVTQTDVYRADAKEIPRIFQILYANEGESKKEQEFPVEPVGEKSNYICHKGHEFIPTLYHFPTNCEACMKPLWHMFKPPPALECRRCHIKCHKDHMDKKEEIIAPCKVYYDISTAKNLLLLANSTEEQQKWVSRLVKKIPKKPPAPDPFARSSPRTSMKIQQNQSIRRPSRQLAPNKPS
Method: as §3

Src = Src (Homo sapiens, UniProt P12931); assay: trFRET binding kinome profiling
Src, sequence (P12931 whole entry, species assumed): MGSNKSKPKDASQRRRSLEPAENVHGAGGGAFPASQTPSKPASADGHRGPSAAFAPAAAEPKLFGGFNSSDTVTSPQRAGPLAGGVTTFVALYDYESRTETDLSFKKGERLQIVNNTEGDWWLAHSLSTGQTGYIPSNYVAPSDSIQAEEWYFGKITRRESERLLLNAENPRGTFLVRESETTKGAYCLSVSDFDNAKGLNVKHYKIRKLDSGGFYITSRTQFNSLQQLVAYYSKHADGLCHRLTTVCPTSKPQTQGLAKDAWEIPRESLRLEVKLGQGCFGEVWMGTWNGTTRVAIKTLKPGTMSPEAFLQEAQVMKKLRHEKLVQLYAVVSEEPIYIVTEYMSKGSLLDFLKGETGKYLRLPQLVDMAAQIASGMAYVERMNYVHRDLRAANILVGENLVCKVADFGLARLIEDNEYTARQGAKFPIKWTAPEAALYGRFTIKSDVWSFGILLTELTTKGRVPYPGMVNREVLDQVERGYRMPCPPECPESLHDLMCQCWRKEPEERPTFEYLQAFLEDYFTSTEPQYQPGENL
Method: as §3

TYRO3 = TYRO3 (Homo sapiens, UniProt Q06418); assay: trFRET binding kinome profiling
TYRO3, sequence (Q06418 41-890, species assumed): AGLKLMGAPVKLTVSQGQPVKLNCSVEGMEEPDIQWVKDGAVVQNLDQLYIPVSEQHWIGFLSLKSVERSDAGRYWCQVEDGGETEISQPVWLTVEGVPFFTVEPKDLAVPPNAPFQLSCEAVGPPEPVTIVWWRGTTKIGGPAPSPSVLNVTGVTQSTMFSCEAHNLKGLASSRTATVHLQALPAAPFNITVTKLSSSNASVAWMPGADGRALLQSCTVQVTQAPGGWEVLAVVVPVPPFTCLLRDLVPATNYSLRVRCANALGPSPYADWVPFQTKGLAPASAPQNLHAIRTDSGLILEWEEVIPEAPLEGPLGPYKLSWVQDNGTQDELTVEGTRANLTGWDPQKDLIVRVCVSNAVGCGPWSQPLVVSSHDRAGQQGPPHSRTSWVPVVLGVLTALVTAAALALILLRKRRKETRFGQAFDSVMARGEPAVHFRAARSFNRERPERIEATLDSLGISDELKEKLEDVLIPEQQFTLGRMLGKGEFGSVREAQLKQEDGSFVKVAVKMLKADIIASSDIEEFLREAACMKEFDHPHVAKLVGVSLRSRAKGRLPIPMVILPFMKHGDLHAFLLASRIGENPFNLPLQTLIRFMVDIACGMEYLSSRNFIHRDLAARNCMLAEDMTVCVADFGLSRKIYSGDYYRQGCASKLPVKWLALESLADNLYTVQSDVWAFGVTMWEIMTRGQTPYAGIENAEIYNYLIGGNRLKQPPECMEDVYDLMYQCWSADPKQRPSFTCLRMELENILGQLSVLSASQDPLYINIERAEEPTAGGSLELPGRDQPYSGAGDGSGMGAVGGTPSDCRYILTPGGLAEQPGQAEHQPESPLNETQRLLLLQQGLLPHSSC
Method: as §3

CC[C@@H]1CN(C(=O)NCC(F)(F)F)C[C@@H]1c1cnc2cnc3[nH]ccc3n12 [upadacitinib, (3S,4R)-3-ethyl-4-(3H-imidazo [1,2-a]pyrrolo [2,3-e]pyrazin-8-yl)-N-(2,2,2-trifluoroethyl) pyrrolidine-1-carboxamide]
IC50 [1]: 11 nM | IC50 [2]: 78 nM | IC50 [3]: 207 nM | IC50 [4]: 1.6 nM | IC50 [5]: 649 nM | IC50 ([6]; Homo sapiens, T-cell): 13 nM | IC50 [6]: 10 nM | IC50 [7]: 22 nM | IC50 [8]: 19 nM | IC50 [9]: 2 nM | IC50 [10]: 4 nM | IC50 [11]: 3 nM | Histological endpoints ([12]; 3 and 10 mg/kg dose groups, data not shown): improved synovial hypertrophy, inflammation, cartilage damage and bone erosion | Reduction in paw swelling at clinical AUC exposures ([12]; exposures for 6 mg BID and 12 mg BID clinical doses of upadacitinib): > 90% | AUC60, AUC0-12 drug concentration necessary to achieve 60% inhibition of paw swelling ([12]; oral BID): 83 ng·h/mL | Effect on paw swelling ([12]; oral, dosed from day 7): dose and exposure dependent reductions in paw swelling | Maximal inhibition of reticulocyte deployment (reticulocyte deployment): ~ 40% | AUC60 for decrease of circulating NK cell numbers ([13]; naive rats dosed orally for 14 days): 480 ng·h/mL | Decrease in circulating NK cells at AUC60 ([13]; rat, at AUC60 of paw swelling): 25% | inhibition at 3 mg (IL-6 induced pSTAT3; Homo sapiens, 1 h): ~50% | Dose reaching maximal pSTAT3 inhibition (IL-6 induced pSTAT3; healthy volunteers, IL-6 stimulation, 1 h post dose): 36 mg | Inhibition of IL-7 driven pSTAT5 (IL-7 driven pSTAT5): ~ 70% | IC50 (ALK): > 5500 nM | IC50 (Aurora 1): > 5500 nM | IC50 (Rock2): < 1000 nM | IC50 (Src): > 10000 nM | IC50 (TYRO3): > 10000 nM
